Patent US11739098B2 (BRISTOL-MYERS SQUIBB COMPANY, priority 2017, dated 2023)

Key:
Type in all cases: cell-based
human TLR7 = target: T1, human TLR7 (Homo sapiens, UniProt Q9NYK1); assay: TLR7 inhibition reporter assay (HEK-Blue cells, SEAP reporter, gardiquimod stimulation); conditions: HEK-Blue cells overexpressing human TLR7, SEAP reporter, gardiquimod 7.5 μM
T1 construct: host or cells: HEK-Blue cells (HEK293-derived reporter line)
T1 sequence (Q9NYK1 27-1049): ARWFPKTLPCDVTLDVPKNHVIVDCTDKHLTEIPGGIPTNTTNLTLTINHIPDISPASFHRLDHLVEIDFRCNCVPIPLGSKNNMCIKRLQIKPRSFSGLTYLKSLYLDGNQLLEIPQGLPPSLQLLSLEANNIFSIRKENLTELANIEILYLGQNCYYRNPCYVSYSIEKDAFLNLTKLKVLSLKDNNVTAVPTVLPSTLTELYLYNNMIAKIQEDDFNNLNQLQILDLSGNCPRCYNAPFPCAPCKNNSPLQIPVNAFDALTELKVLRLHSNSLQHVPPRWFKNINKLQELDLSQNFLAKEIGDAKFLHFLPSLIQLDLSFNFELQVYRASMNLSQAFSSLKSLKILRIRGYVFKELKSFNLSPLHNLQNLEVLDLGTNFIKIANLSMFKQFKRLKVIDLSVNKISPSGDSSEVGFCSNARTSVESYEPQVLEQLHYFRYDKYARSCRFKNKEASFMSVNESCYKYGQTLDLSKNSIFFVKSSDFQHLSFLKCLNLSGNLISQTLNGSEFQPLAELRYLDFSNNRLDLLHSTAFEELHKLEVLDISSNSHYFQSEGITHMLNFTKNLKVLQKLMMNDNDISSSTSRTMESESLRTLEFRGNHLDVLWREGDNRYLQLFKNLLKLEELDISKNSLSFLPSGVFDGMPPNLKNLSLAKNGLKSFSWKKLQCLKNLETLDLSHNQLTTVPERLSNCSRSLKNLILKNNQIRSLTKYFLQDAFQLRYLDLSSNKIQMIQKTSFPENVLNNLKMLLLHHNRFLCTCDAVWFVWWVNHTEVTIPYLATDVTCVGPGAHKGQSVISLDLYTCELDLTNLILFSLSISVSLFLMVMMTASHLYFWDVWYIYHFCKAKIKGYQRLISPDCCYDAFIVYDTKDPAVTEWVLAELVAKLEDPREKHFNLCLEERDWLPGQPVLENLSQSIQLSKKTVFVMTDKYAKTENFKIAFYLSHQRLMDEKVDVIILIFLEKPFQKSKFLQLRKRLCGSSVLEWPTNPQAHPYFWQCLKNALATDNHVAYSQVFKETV
Method in brief: (§1)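 Cells seeded per well (15000 TLR7, 20,000 TLR8, 25,000 TLR9); compound added over 0.05 nM–50 μM for 30 min at room temperature; agonist added (TLR7 gardiquimod 7.5 μM, TLR8 R848 15.9 μM, TLR9 ODN2006 5 nM); 22 h at 37 °C; SEAP measured; percent inhibition calculated.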

human TLR8 = target: T2, human TLR8 (Homo sapiens, UniProt Q9NR97); assay: TLR8 inhibition reporter assay (HEK-Blue cells, SEAP reporter, R848 stimulation); conditions: HEK-Blue cells overexpressing human TLR8, SEAP reporter, R848 15.9 μM
T2 construct: host or cells: HEK-Blue cells (HEK293-derived reporter line)
T2 sequence (Q9NR97 27-1041): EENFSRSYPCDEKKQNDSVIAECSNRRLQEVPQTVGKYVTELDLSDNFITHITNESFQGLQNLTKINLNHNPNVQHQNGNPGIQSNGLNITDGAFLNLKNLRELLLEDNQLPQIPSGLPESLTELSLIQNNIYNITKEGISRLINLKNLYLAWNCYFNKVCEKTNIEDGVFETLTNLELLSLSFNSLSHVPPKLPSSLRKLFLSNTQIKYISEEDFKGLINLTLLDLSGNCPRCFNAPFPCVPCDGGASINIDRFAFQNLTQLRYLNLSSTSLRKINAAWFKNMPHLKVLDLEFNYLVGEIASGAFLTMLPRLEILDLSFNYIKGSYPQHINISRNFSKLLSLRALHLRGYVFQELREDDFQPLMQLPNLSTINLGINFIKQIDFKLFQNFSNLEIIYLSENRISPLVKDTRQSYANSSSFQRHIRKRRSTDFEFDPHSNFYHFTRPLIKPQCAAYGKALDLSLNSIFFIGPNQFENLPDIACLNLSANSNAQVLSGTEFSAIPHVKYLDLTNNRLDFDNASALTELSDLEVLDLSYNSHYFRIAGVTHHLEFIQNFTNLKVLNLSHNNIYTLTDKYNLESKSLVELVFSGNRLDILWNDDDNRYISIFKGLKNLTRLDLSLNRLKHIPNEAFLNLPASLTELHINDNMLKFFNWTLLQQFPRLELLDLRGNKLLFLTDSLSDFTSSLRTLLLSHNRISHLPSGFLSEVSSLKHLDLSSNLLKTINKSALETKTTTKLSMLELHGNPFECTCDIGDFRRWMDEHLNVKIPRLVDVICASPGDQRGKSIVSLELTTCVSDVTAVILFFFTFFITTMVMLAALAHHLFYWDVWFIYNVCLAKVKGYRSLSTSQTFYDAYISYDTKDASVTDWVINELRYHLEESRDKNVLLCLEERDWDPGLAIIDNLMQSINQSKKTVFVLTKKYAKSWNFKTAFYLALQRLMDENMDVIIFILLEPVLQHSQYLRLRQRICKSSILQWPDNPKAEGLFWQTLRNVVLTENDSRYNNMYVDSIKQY
Method in brief: as §1

human TLR9 = target: T3, human TLR9 (Homo sapiens, UniProt Q9NR96); assay: TLR9 inhibition reporter assay (HEK-Blue cells, SEAP reporter, ODN2006 stimulation); conditions: HEK-Blue cells overexpressing human TLR9, SEAP reporter, ODN2006 5 nM
T3 construct: host or cells: HEK-Blue cells (HEK293-derived reporter line)
T3 sequence (Q9NR96 26-1032): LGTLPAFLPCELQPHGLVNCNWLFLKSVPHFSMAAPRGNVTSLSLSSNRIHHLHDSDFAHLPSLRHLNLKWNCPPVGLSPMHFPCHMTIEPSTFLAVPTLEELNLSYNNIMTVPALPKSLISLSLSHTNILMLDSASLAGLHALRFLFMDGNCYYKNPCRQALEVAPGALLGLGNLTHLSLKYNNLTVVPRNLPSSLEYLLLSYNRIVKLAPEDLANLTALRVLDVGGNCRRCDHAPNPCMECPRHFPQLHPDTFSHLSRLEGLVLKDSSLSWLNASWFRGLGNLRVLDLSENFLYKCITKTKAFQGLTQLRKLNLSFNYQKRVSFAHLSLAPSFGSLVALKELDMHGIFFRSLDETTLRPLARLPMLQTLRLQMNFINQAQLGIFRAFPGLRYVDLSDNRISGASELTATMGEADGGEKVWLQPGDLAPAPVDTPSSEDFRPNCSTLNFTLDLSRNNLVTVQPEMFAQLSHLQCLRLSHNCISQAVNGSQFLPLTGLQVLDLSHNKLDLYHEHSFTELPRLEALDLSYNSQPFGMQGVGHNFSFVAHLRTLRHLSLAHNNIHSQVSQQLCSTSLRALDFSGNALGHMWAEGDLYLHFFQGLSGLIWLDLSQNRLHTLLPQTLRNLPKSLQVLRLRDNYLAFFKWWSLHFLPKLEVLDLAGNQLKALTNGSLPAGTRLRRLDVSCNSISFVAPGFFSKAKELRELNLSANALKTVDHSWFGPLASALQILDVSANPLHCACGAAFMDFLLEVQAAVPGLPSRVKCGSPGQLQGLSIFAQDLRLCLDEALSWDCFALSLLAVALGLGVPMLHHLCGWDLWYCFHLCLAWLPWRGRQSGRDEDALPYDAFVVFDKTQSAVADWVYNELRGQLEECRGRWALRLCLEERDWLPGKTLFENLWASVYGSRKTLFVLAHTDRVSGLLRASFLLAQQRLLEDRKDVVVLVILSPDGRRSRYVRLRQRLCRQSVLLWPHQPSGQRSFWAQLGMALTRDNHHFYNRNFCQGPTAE
Method in brief: as §1

IC50 (human TLR7)	IC50 (human TLR8)	IC50 (human TLR9)	Compound
< 100 nM	< 100 nM	1000 to 50000 nM	Cc1cc(-c2[nH]c3ccc(C4CCN(CCS(C)(=O)=O)CC4)cc3c2C(C)C)cc2cnnn12 [Example 795, 5-(3-isopropyl-5-(1-(2-(methylsulfonyl)ethyl)piperidin-4-yl)-1H-indol-2-yl)-7-methyl-[1,2,3]triazolo[1,5-a]pyridine]
1000 to 50000 nM	1000 to 50000 nM	1000 to 50000 nM	Cc1c(-c2ccnc3[nH]cc(N)c23)[nH]c2ccc(C3CCNCC3)cc12 [Example 211, 4-(3-methyl-5-(piperidin-4-yl)-1H-indol-2-yl)-1H-pyrrolo[2,3-b]pyridin-3-amine]
100 to 1000 nM	< 100 nM	1000 to 50000 nM	CCc1c(-c2ccnc3[nH]ncc23)[nH]c2ccc(C3CCN(Cc4c(C)noc4C)CC3)cc12 [Example 893, 4-((4-(3-ethyl-2-(1H-pyrazolo[3,4-b]pyridin-4-yl)-1H-indol-5-yl)piperidin-1-yl)methyl)-3,5-dimethylisoxazole]
< 100 nM	100 to 1000 nM	100 to 1000 nM	Cc1cn2cc(-c3[nH]c4ccc(C5CCN(CC(=O)N(C)C)CC5)cc4c3C(C)C)cc(C(F)(F)F)c2n1 [Example 376, 2-(4-(3-isopropyl-2-(2-methyl-8-(trifluoromethyl)imidazo[1,2-a]pyridin-6-yl)-1H-indol-5-yl)piperidin-1-yl)-N,N-dimethylacetamide]
< 100 nM	100 to 1000 nM	100 to 1000 nM	CNC(=O)CN1CCC(c2ccc3[nH]c(-c4cc(C)c5nc(C)c(C)n5c4)c(C(C)C)c3c2)CC1 [Example 429, 2-(4-(3-isopropyl-2-(2,3,8-trimethylimidazo[1,2-a]pyridin-6-yl)-1H-indol-5-yl)piperidin-1-yl)-N-methylacetamide]
1000 to 50000 nM	100 to 1000 nM	1000 to 50000 nM	CCc1c(-c2ccc3onc(N)c3c2)[nH]c2ccc(C3CCNCC3)cc12 [Example 95, 5-(3-ethyl-5-(piperidin-4-yl)-1H-indol-2-yl)benzo[d]isoxazol-3-amine]
< 100 nM	< 100 nM	1000 to 50000 nM	Cc1cc(-c2[nH]c3ccc(C4CCN(C(=O)CN5C[C@H]6CC[C@@H](C5)O6)CC4)cc3c2C(C)C)cn2nnnc12 [Example 484, 2-((1R,5S)-8-oxa-3-azabicyclo[3.2.1]octan-3-yl)-1-(4-(3-isopropyl-2-(8-methyltetrazolo[1,5-a]pyridin-6-yl)-1H-indol-5-yl)piperidin-1-yl)ethan-1-one]
< 100 nM	< 100 nM	1000 to 50000 nM	Cc1c(-c2[nH]c3ccc(C4CCN(C5CCOCC5)CC4)cc3c2C(C)C)nn2ncnc2c1C [Example 684, 6-(3-isopropyl-5-(1-(tetrahydro-2H-pyran-4-yl)piperidin-4-yl)-1H-indol-2-yl)-7,8-dimethyl-[1,2,4]triazolo[1,5-b]pyridazine]
< 100 nM	< 100 nM	1000 to 50000 nM	Cc1cc(-c2[nH]c3ccc(C4CCN(CC(=O)N(C)C)CC4)cc3c2C(C)C)cc2cn(C)nc12 [Example 379, 2-(4-(2-(2,7-dimethyl-2H-indazol-5-yl)-3-isopropyl-1H-indol-5-yl)piperidin-1-yl)-N,N-dimethylacetamide]
< 100 nM	< 100 nM	100 to 1000 nM	Cc1cc(-c2[nH]c3ccc(C4CCN(CC(C)C)CC4)cc3c2C(C)C)cc2[nH]cnc12 [Example 955, 6-(5-(1-isobutylpiperidin-4-yl)-3-isopropyl-1H-indol-2-yl)-4-methyl-1H-benzo[d]imidazole]
100 to 1000 nM	100 to 1000 nM	1000 to 50000 nM	CC(C)c1c(-c2ccnc3c2ncn3C)[nH]c2ccc(C3CCNCC3)cc12 [Example 45, 7-(3-isopropyl-5-(piperidin-4-yl)-1H-indol-2-yl)-3-methyl-3H-imidazo[4,5-b]pyridine]
< 100 nM	< 100 nM	1000 to 50000 nM	Cc1cc(-c2[nH]c3ccc(C4CCN(C(=O)CN(C)C5CC5)CC4)cc3c2C(C)C)cn2nnnc12 [Example 483, 2-(cyclopropyl(methyl)amino)-1-(4-(3-isopropyl-2-(8-methyltetrazolo[1,5-a]pyridin-6-yl)-1H-indol-5-yl)piperidin-1-yl)ethan-1-one]
1000 to 50000 nM	1000 to 50000 nM	1000 to 50000 nM	CC(C)c1c(-c2ccc3cc[nH]c3c2)[nH]c2ccc(C3CCNCC3)cc12 [Example 65, 3-isopropyl-5-(piperidin-4-yl)-1H,1′H-2,6′-biindole]
< 100 nM	< 100 nM	100 to 1000 nM	CCOc1cc(-c2[nH]c3ccc(C4CCN(C(=O)CN(C)C)CC4)cc3c2C(C)C)cc2ncnn12 [Example 498, 2-(dimethylamino)-1-(4-(2-(5-ethoxy-[1,2,4]triazolo[1,5-a]pyridin-7-yl)-3-isopropyl-1H-indol-5-yl)piperidin-1-yl)ethan-1-one]
